Experimental data from publication PMC7265341, “Quantifying CDK inhibitor selectivity in live cells” (Nature Communications, 2020).
Like-named read-outs stand apart in the source and are kept apart here.

Experiments:
CDK4/Cyclin D1 = CDK4/Cyclin D1 (Homo sapiens, UniProt P11802); experiment: NanoBRET live-cell target engagement, NanoLuc-CDK4/Cyclin D1 in HEK-293; format: binding; conditions: CDK4/D1, 10µM
CDK18/Cyclin Y = CDK18/Cyclin Y (Homo sapiens, UniProt Q07002); experiment: NanoBRET live-cell target engagement, CDK18-NanoLuc/Cyclin Y in HEK-293; format: binding; conditions: CDK18/Y, 10µM
CDK18/Cyclin Y, sequence (Q07002 whole entry): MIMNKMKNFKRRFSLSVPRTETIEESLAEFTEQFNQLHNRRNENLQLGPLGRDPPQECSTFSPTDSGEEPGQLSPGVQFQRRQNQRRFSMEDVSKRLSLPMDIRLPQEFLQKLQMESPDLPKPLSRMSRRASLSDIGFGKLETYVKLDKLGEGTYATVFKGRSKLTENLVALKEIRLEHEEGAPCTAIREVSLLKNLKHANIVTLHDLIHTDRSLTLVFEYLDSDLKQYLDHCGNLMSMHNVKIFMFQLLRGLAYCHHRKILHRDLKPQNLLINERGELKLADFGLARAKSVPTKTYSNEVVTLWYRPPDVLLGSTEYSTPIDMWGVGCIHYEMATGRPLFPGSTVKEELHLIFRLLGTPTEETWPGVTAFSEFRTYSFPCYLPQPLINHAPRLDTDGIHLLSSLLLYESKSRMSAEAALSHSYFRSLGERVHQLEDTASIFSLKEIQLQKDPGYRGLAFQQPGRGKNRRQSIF
CDK18/Cyclin Y, sequence (Q8ND76 whole entry partner): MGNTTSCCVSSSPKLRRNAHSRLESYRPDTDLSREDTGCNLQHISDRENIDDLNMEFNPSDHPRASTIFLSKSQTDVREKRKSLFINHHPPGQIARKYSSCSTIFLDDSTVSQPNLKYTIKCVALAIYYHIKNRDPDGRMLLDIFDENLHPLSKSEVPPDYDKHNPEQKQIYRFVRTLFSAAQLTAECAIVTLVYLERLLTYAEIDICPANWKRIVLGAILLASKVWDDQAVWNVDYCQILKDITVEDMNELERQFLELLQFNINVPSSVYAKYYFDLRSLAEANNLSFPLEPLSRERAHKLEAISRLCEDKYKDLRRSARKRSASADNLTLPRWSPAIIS

CDK6/Cyclin D1 = CDK6/Cyclin D1 (Homo sapiens, UniProt Q00534); experiment: NanoBRET live-cell target engagement, NanoLuc-CDK6/Cyclin D1 in HEK-293; format: binding; conditions: CDK6/D1, 10µM
CDK6/Cyclin D1, sequence (Q00534 whole entry): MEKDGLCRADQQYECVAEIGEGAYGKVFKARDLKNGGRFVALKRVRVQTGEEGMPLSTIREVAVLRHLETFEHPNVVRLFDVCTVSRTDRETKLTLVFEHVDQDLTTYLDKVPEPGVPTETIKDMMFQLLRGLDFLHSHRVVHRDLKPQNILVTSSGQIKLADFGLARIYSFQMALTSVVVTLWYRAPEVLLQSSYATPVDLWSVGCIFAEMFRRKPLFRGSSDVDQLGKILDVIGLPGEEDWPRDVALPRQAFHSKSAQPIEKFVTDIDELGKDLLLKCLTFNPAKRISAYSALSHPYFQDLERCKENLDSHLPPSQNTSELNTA
CDK6/Cyclin D1, sequence (P24385 whole entry partner): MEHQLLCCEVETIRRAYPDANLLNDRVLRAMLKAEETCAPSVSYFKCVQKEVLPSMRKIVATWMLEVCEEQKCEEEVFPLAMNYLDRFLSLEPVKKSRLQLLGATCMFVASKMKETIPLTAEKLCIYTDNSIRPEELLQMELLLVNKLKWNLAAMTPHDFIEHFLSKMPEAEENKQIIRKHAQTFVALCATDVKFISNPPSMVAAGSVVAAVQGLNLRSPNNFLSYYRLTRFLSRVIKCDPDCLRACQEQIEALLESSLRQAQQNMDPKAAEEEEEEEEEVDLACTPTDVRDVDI

CDK15/Cyclin Y = CDK15/Cyclin Y (Homo sapiens, UniProt Q96Q40); experiment: NanoBRET live-cell target engagement, NanoLuc-CDK15/Cyclin Y in HEK-293; format: binding; conditions: CDK15/Y, 10µM
CDK16/Cyclin Y = CDK16/Cyclin Y (Homo sapiens, UniProt Q00536); experiment: NanoBRET live-cell target engagement, CDK16-NanoLuc/Cyclin Y in HEK-293; format: binding; conditions: CDK16/Y, 10µM
CDK20/Cyclin H = CDK20/Cyclin H (Homo sapiens, UniProt Q8IZL9); experiment: NanoBRET live-cell target engagement, NanoLuc-CDK20/Cyclin H in HEK-293; format: binding; conditions: 10µM
CDK17/Cyclin Y = CDK17/Cyclin Y (Homo sapiens, UniProt Q00537); experiment: NanoBRET live-cell target engagement, CDK17-NanoLuc/Cyclin Y in HEK-293; format: binding; conditions: CDK17/Y, 10µM
CDK17/Cyclin Y, sequence (Q00537 whole entry): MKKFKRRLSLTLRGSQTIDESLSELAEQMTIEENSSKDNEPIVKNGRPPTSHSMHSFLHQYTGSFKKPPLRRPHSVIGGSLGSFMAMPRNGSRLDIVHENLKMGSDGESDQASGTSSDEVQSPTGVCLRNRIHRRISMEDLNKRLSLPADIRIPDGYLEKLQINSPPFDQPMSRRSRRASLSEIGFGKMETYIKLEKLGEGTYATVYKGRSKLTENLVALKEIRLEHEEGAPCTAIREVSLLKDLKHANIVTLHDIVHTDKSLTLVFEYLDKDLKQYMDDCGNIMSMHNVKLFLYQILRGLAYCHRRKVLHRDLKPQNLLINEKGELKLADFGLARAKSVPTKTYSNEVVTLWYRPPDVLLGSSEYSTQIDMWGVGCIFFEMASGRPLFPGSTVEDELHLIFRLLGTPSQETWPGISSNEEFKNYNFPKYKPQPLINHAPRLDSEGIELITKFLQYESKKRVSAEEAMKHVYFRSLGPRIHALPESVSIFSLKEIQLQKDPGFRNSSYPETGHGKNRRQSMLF
CDK17/Cyclin Y, sequence (Q8ND76 whole entry partner): as the sequence (Q8ND76 whole entry partner) above

CDK1/Cyclin E1 = CDK1/Cyclin E1 (Homo sapiens, UniProt P06493); experiment: NanoBRET live-cell target engagement, CDK1-NanoLuc/Cyclin E1 in HEK-293; format: binding; conditions: CDK1/E1, 10µM
CDK2/Cyclin E1 = CDK2/Cyclin E1 (Homo sapiens, UniProt P24941); experiment: NanoBRET live-cell target engagement, CDK2-NanoLuc/Cyclin E1 in HEK-293; format: binding; conditions: CDK2/E1, 10µM
CDK10/Cyclin L2 = CDK10/Cyclin L2 (Homo sapiens, UniProt Q15131); experiment: NanoBRET live-cell target engagement, CDK10-NanoLuc/Cyclin L2 in HEK-293; conditions: 10µM
CDK11A/Cyclin L2 = target: T1, CDK11A/Cyclin L2 (Homo sapiens, UniProt Q9UQ88); experiment: NanoBRET live-cell target engagement, CDK11A-NanoLuc/Cyclin L2 in HEK-293; format: binding; conditions: CDK11a/L2, 10µM
T1 sequence (Q9UQ88 1-783): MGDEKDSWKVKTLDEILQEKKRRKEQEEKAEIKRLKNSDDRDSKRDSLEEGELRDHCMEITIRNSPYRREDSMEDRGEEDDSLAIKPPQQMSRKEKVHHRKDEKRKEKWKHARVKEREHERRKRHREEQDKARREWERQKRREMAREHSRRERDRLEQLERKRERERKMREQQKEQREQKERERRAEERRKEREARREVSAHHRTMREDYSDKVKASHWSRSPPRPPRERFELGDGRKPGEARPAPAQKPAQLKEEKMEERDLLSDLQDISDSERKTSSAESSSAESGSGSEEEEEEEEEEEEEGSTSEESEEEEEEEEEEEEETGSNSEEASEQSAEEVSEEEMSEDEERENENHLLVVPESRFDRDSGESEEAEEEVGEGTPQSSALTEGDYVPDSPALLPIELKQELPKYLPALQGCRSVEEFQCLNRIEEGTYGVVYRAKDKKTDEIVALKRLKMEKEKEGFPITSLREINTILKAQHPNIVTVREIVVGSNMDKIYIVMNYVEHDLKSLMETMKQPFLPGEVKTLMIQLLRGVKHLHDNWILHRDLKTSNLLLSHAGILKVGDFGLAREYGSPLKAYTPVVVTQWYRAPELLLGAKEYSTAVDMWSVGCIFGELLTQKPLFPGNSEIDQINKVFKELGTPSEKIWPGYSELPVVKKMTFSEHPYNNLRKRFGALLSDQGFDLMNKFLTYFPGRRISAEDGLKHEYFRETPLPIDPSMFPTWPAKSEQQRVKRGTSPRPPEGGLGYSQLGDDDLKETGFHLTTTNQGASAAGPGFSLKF

CDK9/Cyclin K = CDK9/Cyclin K (Homo sapiens, UniProt P50750); experiment: NanoBRET live-cell target engagement, NanoLuc-CDK9/Cyclin K in HEK-293; format: binding; conditions: CDK9/K, 10µM
CDK3/Cyclin E1 = CDK3/Cyclin E1 (Homo sapiens, UniProt Q00526); experiment: NanoBRET live-cell target engagement, CDK3-NanoLuc/Cyclin E1 in HEK-293; format: binding; conditions: CDK3/E1, 10µM
CDK19/Cyclin C = CDK19/Cyclin C (Homo sapiens, UniProt Q9BWU1); experiment: NanoBRET live-cell target engagement, NanoLuc-CDK19/Cyclin C in HEK-293; conditions: 10µM
CDK11B/Cyclin L2 = CDK11B/Cyclin L2 (Homo sapiens, UniProt P21127); experiment: NanoBRET live-cell target engagement, CDK11B-NanoLuc/Cyclin L2 in HEK-293; format: binding; conditions: CDK11b/L2, 10µM
CDK11B/Cyclin L2, sequence (P21127 1-782 isoform P21127-2): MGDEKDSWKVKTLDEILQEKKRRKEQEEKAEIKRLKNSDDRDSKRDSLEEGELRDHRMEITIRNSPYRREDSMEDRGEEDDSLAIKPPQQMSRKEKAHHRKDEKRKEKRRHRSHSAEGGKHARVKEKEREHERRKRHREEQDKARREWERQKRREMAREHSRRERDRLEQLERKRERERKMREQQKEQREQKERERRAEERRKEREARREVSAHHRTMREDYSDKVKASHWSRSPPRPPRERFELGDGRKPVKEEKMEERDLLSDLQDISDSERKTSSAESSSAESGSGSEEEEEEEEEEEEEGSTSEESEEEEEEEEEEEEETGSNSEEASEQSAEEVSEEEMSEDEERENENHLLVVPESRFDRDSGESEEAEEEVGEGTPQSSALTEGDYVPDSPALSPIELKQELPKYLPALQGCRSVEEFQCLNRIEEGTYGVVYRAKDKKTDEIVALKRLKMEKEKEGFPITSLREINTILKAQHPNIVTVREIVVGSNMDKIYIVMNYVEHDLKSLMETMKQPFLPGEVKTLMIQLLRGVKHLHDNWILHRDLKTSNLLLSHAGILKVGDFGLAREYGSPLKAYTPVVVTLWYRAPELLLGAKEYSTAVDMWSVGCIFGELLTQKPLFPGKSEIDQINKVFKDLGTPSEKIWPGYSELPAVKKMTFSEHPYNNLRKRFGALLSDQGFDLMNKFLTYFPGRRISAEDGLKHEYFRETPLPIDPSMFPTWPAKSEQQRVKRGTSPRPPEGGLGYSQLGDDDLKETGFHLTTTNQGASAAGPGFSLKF

CDK8/Cyclin C = CDK8/Cyclin C (Homo sapiens, UniProt P49336); experiment: NanoBRET live-cell target engagement, NanoLuc-CDK8/Cyclin C in HEK-293; format: binding; conditions: CDK8/C, 10µM
CDK8/Cyclin C, sequence (P49336 whole entry): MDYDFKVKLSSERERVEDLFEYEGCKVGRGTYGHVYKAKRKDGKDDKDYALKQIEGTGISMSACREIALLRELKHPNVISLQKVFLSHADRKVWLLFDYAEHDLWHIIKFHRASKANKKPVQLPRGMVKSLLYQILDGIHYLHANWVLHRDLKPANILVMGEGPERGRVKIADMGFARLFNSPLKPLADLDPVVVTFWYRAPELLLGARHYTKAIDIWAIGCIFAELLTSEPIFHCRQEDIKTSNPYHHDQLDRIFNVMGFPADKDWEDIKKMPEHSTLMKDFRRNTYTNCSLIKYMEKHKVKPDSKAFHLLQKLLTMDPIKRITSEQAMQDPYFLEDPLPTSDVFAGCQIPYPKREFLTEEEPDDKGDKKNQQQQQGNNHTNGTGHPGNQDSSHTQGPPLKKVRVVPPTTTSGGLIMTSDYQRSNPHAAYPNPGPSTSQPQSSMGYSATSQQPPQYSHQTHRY
CDK8/Cyclin C, sequence (P24863 whole entry partner): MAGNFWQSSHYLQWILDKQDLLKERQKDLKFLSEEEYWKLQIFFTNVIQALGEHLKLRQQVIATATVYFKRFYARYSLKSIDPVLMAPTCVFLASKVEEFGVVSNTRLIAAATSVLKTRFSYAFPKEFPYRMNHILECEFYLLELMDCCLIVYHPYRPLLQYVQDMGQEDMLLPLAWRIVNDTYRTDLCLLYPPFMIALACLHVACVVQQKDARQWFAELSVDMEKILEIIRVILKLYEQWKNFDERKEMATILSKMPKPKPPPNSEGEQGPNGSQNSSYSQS

CDK7 = CDK7 (Homo sapiens, UniProt P50613); experiment: NanoBRET live-cell target engagement, NanoLuc-CDK7 in HEK-293; format: binding; conditions: CDK7, 10µM
CDK14/Cyclin Y = CDK14/Cyclin Y (Homo sapiens, UniProt O94921); experiment: NanoBRET live-cell target engagement, CDK14-NanoLuc/Cyclin Y in HEK-293; format: binding; conditions: CDK14/Y, 10µM
CDK14/Cyclin Y, sequence (O94921 whole entry): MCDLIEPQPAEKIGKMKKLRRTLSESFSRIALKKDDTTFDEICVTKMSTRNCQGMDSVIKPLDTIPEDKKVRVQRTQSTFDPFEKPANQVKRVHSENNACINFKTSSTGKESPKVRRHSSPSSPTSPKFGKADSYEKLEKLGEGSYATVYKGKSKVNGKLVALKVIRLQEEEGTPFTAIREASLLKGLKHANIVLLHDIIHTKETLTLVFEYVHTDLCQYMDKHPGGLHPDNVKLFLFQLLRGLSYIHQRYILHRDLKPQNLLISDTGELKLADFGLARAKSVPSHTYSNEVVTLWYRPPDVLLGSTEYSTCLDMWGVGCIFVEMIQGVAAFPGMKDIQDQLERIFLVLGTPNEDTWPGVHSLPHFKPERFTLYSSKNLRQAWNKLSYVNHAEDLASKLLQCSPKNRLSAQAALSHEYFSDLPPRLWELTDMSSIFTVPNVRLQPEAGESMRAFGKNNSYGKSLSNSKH
CDK14/Cyclin Y, sequence (Q8ND76 whole entry partner): as the sequence (Q8ND76 whole entry partner) above

CDK5/CDK5R1 = CDK5/CDK5R1 (Homo sapiens, UniProt Q00535); experiment: NanoBRET live-cell target engagement, CDK5-NanoLuc/CDK5R1 in HEK-293; format: binding; conditions: CDK5/CDK5R1, 10µM
CDK5/CDK5R1, sequence (Q00535 whole entry): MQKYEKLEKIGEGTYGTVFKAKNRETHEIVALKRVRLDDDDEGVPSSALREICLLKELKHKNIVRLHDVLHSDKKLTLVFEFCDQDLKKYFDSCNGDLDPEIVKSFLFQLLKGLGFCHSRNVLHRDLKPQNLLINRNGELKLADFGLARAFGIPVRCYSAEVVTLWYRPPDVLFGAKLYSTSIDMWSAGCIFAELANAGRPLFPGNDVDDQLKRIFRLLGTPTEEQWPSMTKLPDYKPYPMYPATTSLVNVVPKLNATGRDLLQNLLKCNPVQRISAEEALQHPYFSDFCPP
CDK5/CDK5R1, sequence (Q15078 whole entry partner): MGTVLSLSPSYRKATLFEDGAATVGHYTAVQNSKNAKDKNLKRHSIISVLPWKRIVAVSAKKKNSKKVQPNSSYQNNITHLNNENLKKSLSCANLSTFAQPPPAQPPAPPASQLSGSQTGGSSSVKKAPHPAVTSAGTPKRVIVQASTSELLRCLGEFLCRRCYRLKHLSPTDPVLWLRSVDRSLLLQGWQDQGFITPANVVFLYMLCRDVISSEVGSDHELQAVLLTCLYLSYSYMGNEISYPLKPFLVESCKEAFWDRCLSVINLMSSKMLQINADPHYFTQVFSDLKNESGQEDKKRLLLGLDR

[1] = average of replicates, read-out: Inhibition at 10µM (%) Average
[2] = read-out: Inhibition at 10µM (%) Replicate 1
[3] = read-out: Inhibition at 10µM (%) Replicate 2

Question: Which results are given for COc1cc(F)ccc1-c1ncnc(Nc2cccc(C[S@](C)(=N)=O)c2)n1 [Atuveciclib]?
Answer: inhibition at 10 µM (CDK4/Cyclin D1; [1]): 31.5%; inhibition at 10 µM (CDK4/Cyclin D1; [2]): 53.7%; inhibition at 10 µM (CDK4/Cyclin D1; [3]): 9.3%; inhibition at 10 µM (CDK18/Cyclin Y; [1]): 19.9%; inhibition at 10 µM (CDK18/Cyclin Y; [2]): 17.3%; inhibition at 10 µM (CDK18/Cyclin Y; [3]): 22.4%; inhibition at 10 µM (CDK6/Cyclin D1; [1]): 64.1%; inhibition at 10 µM (CDK6/Cyclin D1; [2]): 61.7%; inhibition at 10 µM (CDK6/Cyclin D1; [3]): 66.4%; inhibition at 10 µM (CDK15/Cyclin Y; [1]): 4.5%; inhibition at 10 µM (CDK15/Cyclin Y; [2]): 2%; inhibition at 10 µM (CDK15/Cyclin Y; [3]): 7.1%; inhibition at 10 µM (CDK16/Cyclin Y; [2]): 39.3%; inhibition at 10 µM (CDK16/Cyclin Y; [3]): 37.9%; inhibition at 10 µM (CDK20/Cyclin H; read-out: Inhibition at 10µM (%) Replicate 1, CDK20/H): 1.3%; inhibition at 10 µM (CDK20/Cyclin H; read-out: Inhibition at 10µM (%) Replicate 2, CDK20/H): 1.3%; inhibition at 10 µM (CDK17/Cyclin Y; [1]): 31%; inhibition at 10 µM (CDK17/Cyclin Y; [2]): 30.9%; inhibition at 10 µM (CDK17/Cyclin Y; [3]): 31.1%; inhibition at 10 µM (CDK1/Cyclin E1; [1]): 16.6%; inhibition at 10 µM (CDK1/Cyclin E1; [2]): 19.4%; inhibition at 10 µM (CDK1/Cyclin E1; [3]): 13.8%; inhibition at 10 µM (CDK2/Cyclin E1; [1]): 41.7%; inhibition at 10 µM (CDK2/Cyclin E1; [2]): 42.9%; inhibition at 10 µM (CDK2/Cyclin E1; [3]): 40.5%; inhibition at 10 µM (CDK10/Cyclin L2; read-out: Inhibition at 10µM (%) Average, CDK10/L2, average of replicates): 6.3%; inhibition at 10 µM (CDK10/Cyclin L2; read-out: Inhibition at 10µM (%) Replicate 1, CDK10/L2): 9.2%; inhibition at 10 µM (CDK10/Cyclin L2; read-out: Inhibition at 10µM (%) Replicate 2, CDK10/L2): 3.4%; inhibition at 10 µM (CDK11A/Cyclin L2; [1]): 10%; inhibition at 10 µM (CDK11A/Cyclin L2; [2]): 12.3%; inhibition at 10 µM (CDK11A/Cyclin L2; [3]): 7.6%; inhibition at 10 µM (CDK9/Cyclin K; [1]): 97.9%; inhibition at 10 µM (CDK9/Cyclin K; [2]): 98.1%; inhibition at 10 µM (CDK9/Cyclin K; [3]): 97.6%; inhibition at 10 µM (CDK3/Cyclin E1; [1]): 48.4%; inhibition at 10 µM (CDK3/Cyclin E1; [2]): 47.3%; inhibition at 10 µM (CDK3/Cyclin E1; [3]): 49.6%; inhibition at 10 µM (CDK19/Cyclin C; read-out: Inhibition at 10µM (%) Average, CDK19/C, average of replicates): 11.1%; inhibition at 10 µM (CDK19/Cyclin C; read-out: Inhibition at 10µM (%) Replicate 1, CDK19/C): 12.3%; inhibition at 10 µM (CDK19/Cyclin C; read-out: Inhibition at 10µM (%) Replicate 2, CDK19/C): 9.9%; inhibition at 10 µM (CDK11B/Cyclin L2; [1]): 7.4%; inhibition at 10 µM (CDK11B/Cyclin L2; [2]): 11.9%; inhibition at 10 µM (CDK11B/Cyclin L2; [3]): 2.9%; inhibition at 10 µM (CDK8/Cyclin C; [1]): 3%; inhibition at 10 µM (CDK8/Cyclin C; [2]): -1%; inhibition at 10 µM (CDK8/Cyclin C; [3]): 7%; inhibition at 10 µM (CDK7; [1]): 16.8%; inhibition at 10 µM (CDK7; [2]): 22%; inhibition at 10 µM (CDK7; [3]): 11.6%; inhibition at 10 µM (CDK14/Cyclin Y; [1]): 3%; inhibition at 10 µM (CDK14/Cyclin Y; [2]): 8.4%; inhibition at 10 µM (CDK14/Cyclin Y; [3]): -2.5%; inhibition at 10 µM (CDK5/CDK5R1; [1]): 26.1%; inhibition at 10 µM (CDK5/CDK5R1; [2]): 23.9%; inhibition at 10 µM (CDK5/CDK5R1; [3]): 28.3%
